Laboratory results: ChEMBL document CHEMBL1133422, “The S-alkyl chain length as a determinant of the anti-leukemic activity of cysteine chloromethyl ketone compounds” (Bioorg Med Chem Lett, 2000)

Assays:
NALM-6 = assay: Anti-leukemic activity against Nalm-6 (B-lineage ALL, human acute lymphoblastic leukemia) cell line.; format: functional, cell-based
MOLT-3 = assay: Anti-leukemic activity against Molt-3 (T-lineage ALL, human acute lymphoblastic leukemia) cell line.; format: functional, cell-based

| SMILES | IC50 (NALM-6) [µM] | IC50 (MOLT-3) [µM] |
| --- | --- | --- |
| CCCCCCCCCCCCCCCSC[C@H](NC(C)=O)C(=O)CCl | 8.9 | 8.6 |
| CCCCCCCCCCCCCSC[C@H](NC(C)=O)C(=O)CCl | > 100 | > 100 |
| CCCCCCCCCCCCCCCCCCCCSC[C@H](NC(C)=O)C(=O)CCl | > 100 | > 100 |
| CCCCCCCCCCCCCCSC[C@H](NC(C)=O)C(=O)CCl | 8.7 | 8.8 |
| CSC[C@H](NC(C)=O)C(=O)CCl | 30.3 | 80.8 |
| CCCCCCCCCCCCCCCCCCSC[C@H](NC(C)=O)C(=O)CCl | > 100 | > 100 |
| CCCCSC[C@H](NC(C)=O)C(=O)CCl | 41.4 | 5.6 |
| CCCCCCCCCCCCCCCCCCCCCCSC[C@H](NC(C)=O)C(=O)CCl | > 100 | > 100 |
| CCSC[C@H](NC(C)=O)C(=O)CCl | 52.8 | 99.9 |
| CCCCCCCCCCCCCCCCSC[C@H](NC(C)=O)C(=O)CCl | 16 | 17.3 |

Stronger by IC50 (NALM-6), values ahead:

| IC50 (NALM-6) [µM] | IC50 (MOLT-3) [µM] | SMILES |
| --- | --- | --- |
| 5.6 | 4.1 | CCCCCCCCSC[C@H](NC(C)=O)C(=O)CCl |
| 7.3 | 6.7 | CCCCCCCCCSC[C@H](NC(C)=O)C(=O)CCl |
| 1.7 | 3 | CCCCCCCCCCCSC[C@H](NC(C)=O)C(=O)CCl |
| 4.8 | 2.5 | CCCCCCCSC[C@H](NC(C)=O)C(=O)CCl |
| 4.7 | 3.4 | CCCCCCCCCCSC[C@H](NC(C)=O)C(=O)CCl |
| 3.3 | 0.7 | CCCCCCSC[C@H](NC(C)=O)C(=O)CCl |
| 5.8 | 5.4 | CCCCCSC[C@H](NC(C)=O)C(=O)CCl |
| 6.9 | 8 | CCCSC[C@H](NC(C)=O)C(=O)CCl |
